16 compounds from ChEMBL document CHEMBL4354862, “Peptidomimetic Vinyl Heterocyclic Inhibitors of Cruzain Effect Antitrypanosomal Activity” (J Med Chem, 2020) can be followed below.

Usually pKi stands for the negative decadic logarithm of the Ki, by convention in mol/L. In general, pEC50 refers to the EC50 on a negative log10 scale, so that one unit is a factor of ten. A word on the CC50: it is the concentration that lowers cell viability or growth by half.

pEC50, pKi: −log10 of the molar value.

For data set [1], the target named is T1, Cruzipain (Trypanosoma cruzi, UniProt P25779). The data set can be described thus: Inhibition of Trypanosoma cruzi cruzain assessed as rate constant for enzyme-inhibitor complex using Cbz-Phe-Arg-AMC as substrate and measured up to 40 mins by fluorescence assay. Conditions: read-out: Ki(app).
Data set [2] in a line: Selectivity ratio of Ki for human Cathepsin S to Ki for Trypanosoma cruzi cruzain. The data set is classed as toxicity.
Another data set has as its target Cathepsin S (Homo sapiens, UniProt P25774). Description: Inhibition of recombinant human Cathepsin S expressed in Escherichia coli assessed as rate constant for enzyme-inhibitor-substrate complex using Cbz-Phe-Arg-AMC as substrate measured up to 40 mins by fluorescence assay.
Data set [3] addresses T1, Cruzipain. Description: Inhibition of Trypanosoma cruzi cruzain using Cbz-Phe-Arg-AMC as substrate and measured up to 40 mins by fluorescence assay.
Another data set addresses Procathepsin L (Homo sapiens, UniProt P07711). Description: Inhibition of human Cathepsin L assessed as rate constant for enzyme-inhibitor-substrate complex using Cbz-Phe-Arg-AMC as substrate measured up to 40 mins by fluorescence assay.
Data set [4] deals with Trypanosoma cruzi. The data set can be described thus: Antitrypanosomal activity against Trypanosoma cruzi Ca-I/72 infected in mouse C2C12 cells measured after 48 hrs by 4',6-diamidino-2-phenylindole staining based microscopic analysis. The data set is classed as functional, organism-based. Conditions: Ca-I/72, C2C12, 48 h.
The test system of data set [5] is Trypanosoma brucei brucei. Description: Antitrypanosomal activity against Trypanosoma brucei brucei ATCC PRA-381 procyclic trypomastigotes supplemented with fresh medium containing compound daily for 4 days by coulter counting method. The following applies: ATCC PRA-381, 96 h. The data set is classed as functional, organism-based.
Data set [6] in a line: Glutathione reactivity of the compound in 10% DMSO (v/v)/pH 8 Tris buffer assessed as GSH adduct formation by measuring rate of-thiolation at 2:1 molar ratio of GSH/inhibitor by HPLC-MS analysis. The data set is classed as ADME.
In a further data set the test system is C2C12. Description: Cytotoxicity against mouse C2C12 cells assessed as reduction in cell viability measured after 48 hrs by 4',6-diamidino-2-phenylindole staining based microscopic analysis. Conditions: c2c12, 48 h.
For data set [7], the system named is Trypanosoma brucei brucei. The data set can be described thus: Antitrypanosomal activity against Trypanosoma brucei brucei ATCC PRA-383 bloodstream forms supplemented with fresh medium containing compound daily for 4 days by coulter counting method. The following applies: ATCC PRA-383, 96 h.
The test system of data set [8] is Trypanosoma cruzi. Description: Antitrypanosomal activity against axenic cultures of Trypanosoma cruzi Y ATCC 50832GFP epimastigotes supplemented with fresh medium containing compound daily for 5 days by coulter counting method. Conditions: 120 h. Format: functional, organism-based.
The next data set relates to NHDF. The data set can be described thus: Cytotoxicity against HDF cells assessed as reduction in cell viability measured after 48 hrs by resazurin dye based fluorescence assay. Conditions: human. On the technique in general: Resazurin is reduced to fluorescent resorufin, in cell work by metabolically active cells.
Data set [9] concerns the target Cruzipain (Trypanosoma cruzi) (UniProt P25779). Description: Reversible inhibition of Trypanosoma cruzi cruzain assessed as rate constant K3 using Cbz-Phe-Arg-AMC as substrate preincubated for 1 hr followed by enzyme-compound mixture dilution in presence of substrate by fluorescence assay.
The nature of data set [10]: Selectivity index, ratio of CC50 for HDF cells to EC50 for Trypanosoma cruzi Ca-I/72 infected in mouse C2C12 cells. Format: toxicity, cell-based. Conditions: read-out: Ratio CC50/EC50.
Data set [11] in a line: Selectivity ratio of Ki for human Cathepsin L to Ki for Trypanosoma cruzi cruzain. The data set is classed as toxicity.
The nature of data set [12]: Solubility of the compound in 10% DMSO v/v at 1 to 200 uM measured up to 120 mins. The data set is classed as physicochemical. The following applies: 2 h.
Data set [13] addresses Cruzipain (Trypanosoma cruzi) (UniProt P25779). The data set can be described thus: Reversible inhibition of Trypanosoma cruzi cruzain assessed as rate constant K4 using Cbz-Phe-Arg-AMC as substrate preincubated for 1 hr followed by enzyme-compound mixture dilution in presence of substrate by fluorescence assay.
Data set [14] can be described thus: Selectivity ratio of Ki for human Cathepsin B to Ki for Trypanosoma cruzi cruzain. The data set is classed as toxicity.
In data set [15] the test system is Trypanosoma cruzi. The data set can be described thus: Potency index, ratio of K11777 IC50 to test compound IC50 for axenic cultures of Trypanosoma cruzi Y ATCC 50832GFP epimastigotes. Format: functional.
In a further data set the target is Cathepsin B (Homo sapiens, UniProt P07858). The data set can be described thus: Inhibition of human Cathepsin B assessed as rate constant for enzyme-inhibitor-substrate complex using Cbz-Phe-Arg-AMC as substrate measured up to 40 mins by fluorescence assay.
The nature of data set [16]: Glutathione reactivity of the compound in 10% DMSO (v/v)/pH 8 Tris buffer assessed as GSH adduct formation by measuring equilibrium constant measured after 90 mins by HPLC-MS analysis. The data set is classed as ADME.
The nature of data set [17]: Glutathione reactivity of the compound in 10% DMSO (v/v)/pH 8 Tris buffer assessed as GSH adduct formation by measuring retention time at 0.5 mM by HPLC-MS analysis. Format: ADME. The following applies: pH 8, 500 µM.
Data set [18] is described as follows: Glutathione reactivity of the compound in 10% DMSO (v/v)/pH 8 Tris buffer assessed as GSH adduct formation by measuring rate of-thiolation at 0.5 mM by HPLC-MS analysis. Format: ADME. Conditions: pH 8, 500 µM.
For data set [19], the system named is Trypanosoma cruzi. Description: Antitrypanosomal activity against Trypanosoma cruzi Brazil epimastigotes measured after 48 hrs by [3H]thymidine incorporation based beta-counting method. The data set is classed as functional, organism-based.
For data set [20], the target named is Cruzipain (Trypanosoma cruzi) (UniProt P25779). Description: Irreversible inhibition of Trypanosoma cruzi cruzain assessed as ratio of Kinact to Ki using Cbz-Phe-Arg-AMC as substrate by fluorescence assay.
Sequence of Cruzipain (Trypanosoma cruzi) (P25779 123-467 limits assumed): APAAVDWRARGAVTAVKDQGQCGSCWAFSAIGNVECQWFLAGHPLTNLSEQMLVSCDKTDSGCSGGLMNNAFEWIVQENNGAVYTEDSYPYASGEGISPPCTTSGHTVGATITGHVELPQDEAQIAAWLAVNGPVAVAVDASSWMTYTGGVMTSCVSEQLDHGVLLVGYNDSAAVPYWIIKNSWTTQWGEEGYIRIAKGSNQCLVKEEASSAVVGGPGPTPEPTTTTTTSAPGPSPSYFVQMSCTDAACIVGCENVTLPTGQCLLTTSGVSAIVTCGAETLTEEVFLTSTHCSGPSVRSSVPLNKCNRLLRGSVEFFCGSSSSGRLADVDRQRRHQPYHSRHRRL

T1 sequence (P25779 whole entry): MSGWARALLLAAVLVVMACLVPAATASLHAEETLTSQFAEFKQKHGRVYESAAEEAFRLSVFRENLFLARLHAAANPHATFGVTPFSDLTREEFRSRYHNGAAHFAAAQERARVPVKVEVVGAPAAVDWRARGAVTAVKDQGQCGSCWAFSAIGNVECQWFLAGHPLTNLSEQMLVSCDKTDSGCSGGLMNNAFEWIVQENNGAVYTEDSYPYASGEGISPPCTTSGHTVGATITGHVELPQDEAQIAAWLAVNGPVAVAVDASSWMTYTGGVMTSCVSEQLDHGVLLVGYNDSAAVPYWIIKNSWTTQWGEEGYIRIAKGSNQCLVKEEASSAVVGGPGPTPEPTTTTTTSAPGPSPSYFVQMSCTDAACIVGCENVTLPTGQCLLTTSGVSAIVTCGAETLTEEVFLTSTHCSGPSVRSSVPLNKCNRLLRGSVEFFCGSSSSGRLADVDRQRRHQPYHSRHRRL
Sequence of Procathepsin L (P07711 whole entry): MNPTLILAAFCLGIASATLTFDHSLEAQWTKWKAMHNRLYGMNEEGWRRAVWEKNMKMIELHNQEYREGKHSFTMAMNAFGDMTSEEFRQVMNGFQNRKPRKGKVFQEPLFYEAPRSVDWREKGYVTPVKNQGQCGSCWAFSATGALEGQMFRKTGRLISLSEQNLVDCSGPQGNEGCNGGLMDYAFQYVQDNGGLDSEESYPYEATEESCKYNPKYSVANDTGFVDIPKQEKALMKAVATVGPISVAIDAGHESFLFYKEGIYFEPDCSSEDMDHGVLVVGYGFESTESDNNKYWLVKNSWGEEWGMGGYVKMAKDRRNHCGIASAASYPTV
Sequence of Cathepsin S (P25774 whole entry): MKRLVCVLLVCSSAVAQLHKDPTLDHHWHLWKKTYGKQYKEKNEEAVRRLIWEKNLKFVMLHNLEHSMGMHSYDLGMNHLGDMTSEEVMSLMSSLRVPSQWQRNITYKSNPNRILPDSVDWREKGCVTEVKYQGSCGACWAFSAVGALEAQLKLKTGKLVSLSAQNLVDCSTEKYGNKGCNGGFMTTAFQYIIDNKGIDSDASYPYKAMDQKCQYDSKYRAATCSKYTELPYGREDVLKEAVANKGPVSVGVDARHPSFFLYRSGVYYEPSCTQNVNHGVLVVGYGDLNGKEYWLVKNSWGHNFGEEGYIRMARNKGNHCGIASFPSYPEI

`O=C(N[C@@H](Cc1ccccc1)C(=O)N[C@H](/C=C/c1ncccn1)CCc1ccccc1)OCc1ccccc1`: the pKi on Cruzipain [1] is less than 4.46.

As to `C[n+]1ccccc1/C=C/[C@H](CCc1ccccc1)NC(=O)[C@H](Cc1ccccc1)NC(=O)OCc1ccccc1`, the “Ratio Ki” value in [2], in [11] and in [14] was more than 10 throughout. The pKi at Cathepsin S was 6.49; on Cruzipain [3] it was 5.37 to 5.70; on Procathepsin L, 6.06; at Cruzipain [1], 6.12; at Cathepsin B, 4.43. Besides, the pEC50 with Trypanosoma cruzi [4] was 5.27; in data set [5] it was 5.23; in data set [7], 5.55; in the data set with Trypanosoma cruzi [8] it was 5.68. The K in data set [6] is 54 M⁻¹ s⁻¹; in data set [9], 0.0012 to 0.004 s⁻¹; in data set [13] it was 0.00019 s⁻¹. Also, the CC50 is more than 10 µM in the data set with C2C12 and more than 100 µM in the data set with NHDF. For the same compound, the selectivity ratio in data set [10] was more than 20. For the same compound, the solubility result in [12] is listed as “>= 50 uM”. In the data set with Trypanosoma cruzi [15], the “Ratio IC50” value stood at 10. Besides, the Ke in data set [16] was found to be 2400 M⁻¹. Further, the Retention_time in data set [17] is reported as 4.72 min.

With `COc1ccnc(/C=C/[C@H](CCc2ccccc2)NC(=O)[C@H](Cc2ccccc2)NC(=O)OCc2ccccc2)c1`, the pKi at Cruzipain [1] was less than 5.30.

For the compound `C[n+]1ccsc1/C=C/[C@H](Cc1ccccc1)NC(=O)[C@H](Cc1ccccc1)NC(=O)OCc1ccccc1.[I-]`, the K in data set [6] was 15 M⁻¹ s⁻¹. Besides, the Ke in [16] is 930 M⁻¹. For the same compound, the Retention_time in data set [17] was determined as 3.61 min.

Take `CN1CCN(C(=O)N[C@@H](Cc2ccccc2)C(=O)N[C@H](/C=C/S(=O)(=O)c2ccccc2)CCc2ccccc2)CC1` [K-777]: the pEC50 was 6.15 in the data set on Trypanosoma cruzi [4]; 5.77 in [5]; 4.22 in the data set on Trypanosoma cruzi [19]; 7.05 in data set [7]; less than 4.70 in the data set with Trypanosoma cruzi [8]. Also, the K in data set [18] was 0.00028 s⁻¹. Moreover, the results for the CC50 with C2C12 and with NHDF were more than 10 µM and 60 to 100 µM, respectively. Moreover, the Retention_time in data set [17] worked out at 4.64 min.

Turning to `O=C(N[C@@H](Cc1ccccc1)C(=O)N[C@H](/C=C/c1ncccn1)Cc1ccccc1)OCc1ccccc1`, the CC50 is more than 10 µM in the data set on C2C12 and more than 100 µM in the data set on NHDF. Also, in [12], the solubility entry is recorded as “>= 100 uM”. The K in [13] was determined as 0.0018 s⁻¹.

For `O=C(N[C@@H](Cc1ccccc1)C(=O)N[C@H](/C=C/c1ccccn1)Cc1ccccc1)OCc1ccccc1`, the CC50 was more than 10 µM with C2C12 and more than 100 µM in the data set with NHDF. The compound further gave a pEC50 in the data set with Trypanosoma cruzi [8] of less than 4.70. Also, the solubility entry in [12] was “<= 30 uM”. The K in [13] is 0.0012 s⁻¹.

In the case of `CN1CCN(C(=O)N[C@@H](Cc2ccccc2)C(=O)N[C@H](/C=C/C(N)=O)CCc2ccccc2)CC1`, the kinact/Ki in data set [20] came to 1900 M⁻¹ s⁻¹.

As for `O=C(N[C@@H](Cc1ccccc1)C(=O)N[C@H](/C=C/c1ccccc1)Cc1ccccc1)OCc1ccccc1`, the solubility entry in data set [12] is on record as “<= 2 uM”.

On to `O=C(N[C@@H](Cc1ccccc1)C(=O)N[C@H](/C=C/c1ncco1)Cc1ccccc1)OCc1ccccc1`, for which the results for the pEC50 (in [5]; in the data set on Trypanosoma cruzi [8]) were 4.57 and less than 4.70, respectively. Moreover, in the data set on NHDF, the CC50 was more than 100 µM.

As for `CN1CCN(C(=O)N[C@@H](Cc2ccccc2)C(=O)N[C@H](/C=C/c2ncccn2)CCc2ccccc2)CC1`, the pEC50 is 4.82 in data set [5], less than 4.70 in data set [7] and 4.70 with Trypanosoma cruzi [8]. Moreover, the pKi at Cruzipain [1] is less than 5.00.

Turning to `NC(=O)/C=C/[C@H](CCc1ccccc1)NC(=O)[C@H](Cc1ccccc1)NC(=O)OCc1ccccc1`, in [20], the kinact/Ki came to 1700 M⁻¹ s⁻¹.

On to `C[n+]1ccccc1/C=C/[C@H](Cc1ccccc1)NC(=O)[C@H](Cc1ccccc1)NC(=O)OCc1ccccc1.[I-]`, for which the “Ratio Ki” value is reported as “>= 3” in data set [2], “>= 3” in [11] and 40 in data set [14]. The pEC50 with Trypanosoma cruzi [4] is 5.00; in [5] it was 4.89; in [7], 5.18; with Trypanosoma cruzi [8] it was 5.06. The K in [6] was determined as 37 M⁻¹ s⁻¹. Further, the CC50 in the data set on C2C12 was more than 10 µM; in the data set on NHDF, more than 100 µM. Moreover, the selectivity ratio in [10] was more than 10. Also, the solubility result in [12] is “>= 50 uM”. The “Ratio IC50” value in the data set on Trypanosoma cruzi [15] came to 10. The Ke in data set [16] was determined as 7400 M⁻¹.

For the compound `O=C(N[C@@H](Cc1ccccc1)C(=O)N[C@H](/C=C/c1ccc([N+](=O)[O-])cc1)Cc1ccccc1)OCc1ccccc1`, the solubility result in data set [12] is given as “<= 2 uM”.

Take `O=C(N[C@@H](Cc1ccccc1)C(=O)N[C@H](/C=C/c1ccccn1)CCc1ccccc1)OCc1ccccc1`: the pEC50 is 5.23 in the data set on Trypanosoma cruzi [4], less than 5.00 in [5], 5.40 in data set [7] and less than 4.70 in the data set with Trypanosoma cruzi [8]. Besides, the CC50 with C2C12 is more than 10 µM; with NHDF it was more than 100 µM.

As to `NC(=O)/C=C/[C@H](Cc1ccccc1)NC(=O)[C@H](Cc1ccccc1)NC(=O)OCc1ccccc1`, the kinact/Ki in [20] came to 21.7 M⁻¹ s⁻¹.
